This passage reports IC50 results from patent US20110178119A1, “Bridged N-Bicyclic Sulfonamido Inhibitors of Gamma Secretase” (ELAN PHARMACEUTICALS, INC., priority 2005, published 2011).

In the test the target is T1, gamma-secretase (Homo sapiens, UniProt P49768).
T1 construct: a partially purified extract of IMR-32 cell membranes as the gamma-secretase enzyme preparation; endogenous in cells; host or cells: IMR-32 cell membranes, partially purified extract
Put plainly: Gamma-secretase APP enzyme assay (cleavage of MBP-C125swe substrate, sandwich ELISA). It is filed as biochemical. To be noted: partially purified extract of IMR-32 cell membranes as enzyme, 2 h at 37° C, ELISA detection of cleavage product, read-out: γAPP. From the text:
The gamma-secretase APP enzyme assay was designed to measure the specific proteolytic cleavage of an APP substrate (MBP-C125 Swe fusion protein) at the […] site. The assay used a partially purified extract of IMR-32 cell membranes as the gamma-secretase enzyme preparation and a recombinant fusion protein containing the C-terminal 125 amino acids of the Swedish variant of the APP (MBP-C125swe) as the substrate. This assay involved two steps beginning with the enzymatic reaction generating a cleavage product that was captured with an immobilized antibody specific for the neo-epitope […] site. The captured cleavage product was then detected in a sandwich ELISA assay with a biotinylated reporter antibody that is specific to Aβ (17-28). Streptavidin-linked alkaline phosphatase was then added that would generate a fluorescent signal proportional to the amount of cleavage product. This assay was used to discover small molecule inhibitors of gamma-secretase. Briefly, a 149 mg/ml solution of […] detergent was made with water at 42° C. and then rotated for 30 minutes at the same temperature. […] Louis, Mo.) to a concentration of 8 mg/ml. This solution containing BigCHAPS and lipid at 8 mg/ml is then diluted to 0.53 mg/ml lipid with a pre-warmed solution of Hepes and sodium chloride. This final solution containing Hepes buffer, sodium chloride, BigCHAPS detergent and lipid is used to create working solutions of both gamma-secretase (25 Units) and the MBP-C125 substrate (0.05 mg/ml). Gamma-secretase was then added to a 96-well micro-titre plate and then incubated with various concentrations of inhibitor for 30 minutes at 37° C. MBP-C125 substrate was then added to initiate the reaction that would run for two hours at 37° C. The reaction was quenched with the addition of SDS to a final concentration of 0.1% and then 100 μl of the reaction mixture was transferred to a capture ELISA plate and incubated overnight at 4° C. Detection of the cleavage product was performed using a standard sandwich ELISA assay and quantified using a six point standard curve.
For orientation: An ELISA detects its analyte on a solid surface through an enzyme-linked reagent.

With `O=S(=O)(c1ccc(C(F)(F)F)cc1)N1C2CCCC1CCC2` [9-(4-(trifluoromethyl)phenylsulfonyl)-9-azabicyclo[3.3.1]nonane], the IC50 lay within 2000 to 5000 nM.
The value for `O=S(=O)(c1ccc(Br)cc1)N1C2CCCC1CCC2` [9-(4-bromophenylsulfonyl)-9-azabicyclo[3.3.1]nonane] was 1000 to 2500 nM.
Consider `O=S(=O)(c1ccc(Cl)cc1)N1C2CCCC1CSC2` [9-(4-chlorophenylsulfonyl)-3-thia-9-azabicyclo[3.3.1]nonane], for which the IC50 was under 1000 nM.
Turning to `O=S(=O)(c1ccc(Br)cc1)N1C2CCCC1CC2` [8-(4-bromophenylsulfonyl)-8-azabicyclo[3.2.1]octane], the IC50 was in the range of 2000 to 5000 nM.
With `O=C1NCC2CCCC1N2S(=O)(=O)c1ccc(Cl)cc1` (stereo not shown) [9-(4-chlorophenylsulfonyl)-3,9-diazabicyclo[3.3.1]nonan-2-one] the figure was 2000 to 5000 nM; with `O=S(=O)(c1ccc(Br)s1)N1C2CCCC1CCC2` [9-(5-bromothiophen-2-ylsulfonyl)-9-azabicyclo[3.3.1]nonane], 2000 to 5000 nM.
With `O=C1NC(=O)C2CCCC1N2S(=O)(=O)c1ccc(Cl)cc1` [9-[(4-chlorophenyl)sulfonyl]-3,9-diazabicyclo[3.3.1]nonane-2,4-dione] the figure was under 1000 nM.
As for `O=S(=O)(c1ccc(Cl)cc1)N1C2CCCC1CC(=NO)C2` [9-(4-chlorophenylsulfonyl)-9-azabicyclo[3.3.1]nonan-3-one oxime], the IC50 lay in the range of 2000 to 5000 nM.
`C=C1CC2CCCC(C1)N2S(=O)(=O)c1ccc(Cl)cc1` [9-(4-chlorophenylsulfonyl)-3-methylene-9-azabicyclo[3.3.1]nonane]: the IC50 is under 1000 nM.
With `O=S(=O)(c1ccc(Br)c(F)c1)N1C2CCCC1CCC2` [9-(4-bromo-3-fluorophenylsulfonyl)-9-azabicyclo[3.3.1]nonane] the figure was 2000 to 5000 nM.
With `O=S(=O)(c1ccc(Cl)cc1)N1C2CCCC1CC(O)C2` (stereo not shown) [9-(4-chlorophenylsulfonyl)-9-azabicyclo[3.3.1]nonan-3-ol] the figure was 2000 to 5000 nM; with `O=S(=O)(c1ccc(Cl)cc1)N1C2CCCC1COC2` [9-(4-chlorophenylsulfonyl)-3-oxa-9-azabicyclo[3.3.1]nonane], 2000 to 5000 nM.
With `O=S(=O)(c1ccc(Cl)s1)N1C2CCCC1CCC2` [9-(5-chlorothiophen-2-ylsulfonyl)-9-azabicyclo[3.3.1]nonane] the figure was 2000 to 5000 nM; with `O=C1CC2CCCC(C1)N2S(=O)(=O)c1ccc(Cl)cc1` [9-(4-chlorophenylsulfonyl)-9-azabicyclo[3.3.1]nonan-3-one], under 1000 nM; with `O=S(=O)(c1ccc(Cl)cc1)N1C2CCCC1CCC2` [9-(4-chlorophenylsulfonyl)-9-azabicyclo[3.3.1]nonane], 1000 to 2500 nM.
On to `O=S(=O)(c1ccc(Cl)cc1)N1C2CCCC1CC2` [8-(4-chlorophenylsulfonyl)-8-azabicyclo[3.2.1]octane], for which the IC50 lay in the range of 2000 to 5000 nM.
Consider `O=S(=O)(c1ccc(Cl)cc1)N1C2CCCC1CN(c1ccccc1)C2` [9-(4-chlorophenylsulfonyl)-3-phenyl-3,9-diazabicyclo[3.3.1]nonane], for which the IC50 lay in the range of 1000 to 2500 nM.
The value for `CS(=O)(=O)OC1CC2CCCC(C1)N2S(=O)(=O)c1ccc(Cl)cc1` (stereo not shown) [Methanesulfonic acid 9-(4-chloro-benzenesulfonyl)-9-aza-bicyclo[3.3.1]non-3-yl ester] was 1000 to 2500 nM; that for `CN(C(=O)OC(C)(C)C)C1CC2CCCC(C1)N2S(=O)(=O)c1ccc(Cl)cc1` (stereo not shown) [[9-(4-Chloro-benzenesulfonyl)-9-aza-bicyclo[3.3.1]non-3-yl]-methyl-carbamic acid tert-butyl ester] was under 1000 nM.
